Laboratory results from patent publication US20070036776A1, “Bacterial signaling molecules that down-regulate pathogenic bacterial virulence properties” (priority 2004, published 2007).

Test system: human peripheral blood mononuclear cells (PBMCs)
Assay type: cell-based

Substance	induction of T cell proliferation	concentration of maximum stimulation	half maximal proliferation
staphylococcal superantigen-like protein 11 [SSL11]	not able to induce		
toxic shock syndrome toxin-1 [TSST-1]		50 ng/mL	approximately 500 pg/mL
